Results reported in patent US20210361575A1, “LIPID PRODRUGS FOR USE IN DRUG DELIVERY” (NEW MEXICO TECH UNIVERSITY RESEARCH PARK CORPORATION, priority 2018, published 2021).
Read-outs that look alike come from different tables or passages of the source.

Key:
HeLa cells [1] = test: MTT cytotoxicity of 2T-T and 2T-C prodrug-loaded liposomes; assay type: cell-based; conditions: Homo sapiens
Experimental: To assess the cytotoxicity of 2T-T prodrug-loaded liposomes, HeLa cells were exposed to different concentrations of topotecan or 2T-T loaded liposomes for 72 hours. After the 72 hour incubation period, cell viability was assessed via an MTT assay.
To assess the cytotoxicity of 2T-C prodrug-loaded liposomes, HeLa cells were exposed to different concentrations of cytarabine or 2T-C(NH2 attachment) loaded liposomes for 48 hours. After the 48 hour incubation period, cell viability was assessed via a MTT assay.

MCF-7 cells = test: MTT cytotoxicity of prodrug-loaded liposomes and parent compounds, MCF-7; assay type: cell-based, Human; conditions: MCF7, 48 hours, free parent compounds or prodrug-incorporated liposomes (20 mol %), read-out: cell viability (MTT), potency
[2] = Differential scanning calorimetry of loaded liposomes; assay type: physicochemical; conditions: increasing concentration, prodrugs 0 to 37 mol %, parents 0 to 31 mol %; compared to empty liposomes; not extruded
Experimental: Prodrug-loaded liposome (PLL) samples were prepared using 20 mg of lipid per 1 mL of […] for each compound with increasing prodrug concentrations without extrusion. Deionized water was used as the calibration standard. 10 μL from each liposome suspension was transferred and sealed in an aluminum DSC pan. DSC measurements were taken at room temperature, and the sample was then heated from 15° C. to 55° C. at 5° C./min.
DSC is a thermal analytical technique useful for designing lipid drug delivery systems, like liposomes, by determining the compatibility of mixed molecules and compositions with the liposome bilayer. The thermotropic behavior of the liposomes at varying prodrug concentrations is measured to determine whether insertion of the molecules modifies the phase transition temperature. The pre-phase transition was masked by PEG-2000. […] As the concentration was increased, the phase transition returned to the phase transition of empty liposomes. […] All liposome suspensions used for DSC analysis were prepared in deionized water instead of sodium buffer to prevent undesired interactions. The samples were not extruded.

MCF10A cells = test: MTT cytotoxicity of prodrug-loaded liposomes and parent compounds, MCF10A; assay type: cell-based; conditions: 48 hours, free parent compounds or prodrug-incorporated liposomes (20 mol %), read-out: cell viability (MTT), potency
HeLa cells [3] = test: MTT cytotoxicity of prodrug-loaded liposomes and parent compounds, HeLa; assay type: cell-based, Human; conditions: 48 hours, free parent compounds or prodrug-incorporated liposomes (20 mol %), read-out: cell viability (MTT), potency
[4] = 2T-P and 2T-N incorporation efficiency in liposomes (UV-Vis); assay type: physicochemical; conditions: parent compound in liposomes
Experimental: Parent compound and prodrug concentrations in liposomes were determined using UV-Vis spectrophotometry; (2T-P: 292 nm; 2T-N: 285 nm). PLL were prepared at varying concentrations between 0 mol % to 50 mol %. The lipid amounts remained equivalent for samples under 50 mol %. Each sample was extruded through a 200 nm pore membrane for a total of 11 passes. Prior and post extrusion liposomes were ruptured by dissolution in DMSO (liposome suspension/DMSO, 1:9, v/v). Samples were analyzed in a quartz cuvette. The following parameters were used: scan speed: 120 nm/min; bandwidth: 2 nm; integration time: 0.15 sec; data interval: 0.30 nm; start wavelength: 500 nm; end wavelength: 190 nm.
N and P (SCHEME 1) are hydrophobic compounds that have been altered to contain an amphiphilic tail (2T-P and 2T-N), altering their incorporation within liposomes, which can be characterized using UV-Vis. This technique measures the decreasing transmittance through a sample surface. The absorption of the liposomes at varying concentrations (after removal of unincorporated material) can be used to calculate how much of a drug has been incorporated into liposomes.

[5] = Liposomal particle size distribution and stability (DLS); assay type: physicochemical; parameters: liposome diameter (DLS), Pre / liposome diameter (DLS), Post: unit not given beside the values; conditions: for PDI, Post / liposome diameter (DLS), Post: post-extrusion; for PDI, Pre / liposome diameter (DLS), Pre: pre-extrusion
Source text: Liposomal size distribution was characterized via dynamic light scattering (DLS). Measurements were taken with disposable polystyrene sizing cuvettes containing the liposome suspensions. Reported DLS measurements are averages of 3 individually prepared liposome samples.
The size distribution of the parent compounds and prodrug loaded liposomes were monitored over time using dynamic light scattering (DLS).
The size distribution of 2T-T liposomes were characterized via DLS measurement both pre- and post-extrusion. The standard deviations of liposome diameter were lower post extrusion. […] The size distributions of 2T-T liposomes at loaded with various concentrations of 2T-T can be seen in TABLE 2, and FIGS. 10-11. […]

[6] = 2T-T incorporation in liposomes (UV-vis, pre- and post-extrusion); assay type: physicochemical; conditions: 2T-T liposomes; for Actual Drug Incorporation - Post: post-extrusion; for Actual Drug Incorporation - Pre: pre-extrusion
Experimental: 2T-T liposomes were produced with increasing concentrations of 2T-T, and passed through an extruder to remove any unincorporated 2T-T from the liposome solution. Liposome solutions were analyzed both pre- and post-extrusion using UV-vis spectroscopy with a scanning range of 200 nm-500 nm, 2 nm bandwidth, […], 0.5 nm data interval, and 100 nm/min scan speed. […] Incorporation limits were analyzed up to 70 mol % (147 uM).

Compound: Nc1ccn([C@@H]2O[C@H](CO)[C@@H](O)[C@@H]2O)c(=O)n1 [cytarabine]
- IC50 (HeLa cells [1]; 48 hours): 4450 ± 6290 nM

Compound: CCCCCCCCCCCCCCCC(=O)OCC(COP(=O)([O-])OCCNC(=O)CCCC(=O)O[C@@H]1c2cc3c(cc2[C@H](c2cc(OC)c(OC)c(OC)c2)[C@@H]2C(=O)OC[C@H]21)OCO3)OC(=O)CCCCCCCCCCCCCCC.[Na+] (stereo partly drawn) [2T-P, Sodium 2,3-bis (palmitoyloxy) propyl (2-(5-oxo-5-(((5S,5aS,8aS,9S)-8-oxo-9-(3,4,5-trimethoxyphenyl)-5,5a,6,8,8a,9-hexahydrofuro[3′,4′:6,7]naphtha[2,3-d][1,3]dioxol-5-yl)oxy)pentanamido)ethyl)phosphate]
- IC50 (MCF-7 cells): 2560 ± 126 nM
- phase transition temperature behaviour (DSC thermograms) [2]: shallow decreasing phase transition temperatures
- IC50 (MCF10A cells): 1540 ± 130 nM
- IC50 (HeLa cells [3]): 1370 ± 44 nM

Compound: COc1cc([C@@H]2c3cc4c(cc3[C@H](O)[C@H]3COC(=O)[C@H]23)OCO4)cc(OC)c1OC [P, podophyllotoxin]
- IC50 (MCF-7 cells; Homo sapiens): 9 ± 4 nM
- maximum measured loading [4]: ~11 mol %
- IC50 (MCF10A cells; Homo sapiens, MCF-10A): 14 ± 4 nM
- IC50 (HeLa cells [3]; Homo sapiens): 9 ± 1 nM

Compound: CCCCCCCCCCCCCCCC(=O)OCC(COP(=O)([O-])OCCNC(=O)CCCC(=O)Oc1ccc2nc3c(cc2c1CN(C)C)Cn1c-3cc2c(c1=O)COC(=O)[C@@]2(O)CC)OC(=O)CCCCCCCCCCCCCCC.[Na+] (some centres unmarked) [2T-T]
- PDI, Post ([5]; 2T-T 10 mol %): 0.3 ± 0
- liposome diameter (DLS), Post ([5]; 2T-T 10 mol %): 130 ± 7
- PDI, Pre ([5]; 2T-T 10 mol %): 0.3 ± 0
- liposome diameter (DLS), Pre ([5]; 2T-T 10 mol %): 102 ± 19
- PDI, Post ([5]; 2T-T 20 mol %): 0.3 ± 0
- liposome diameter (DLS), Post ([5]; 2T-T 20 mol %): 129 ± 9
- PDI, Pre ([5]; 2T-T 20 mol %): 0.3 ± 0.1
- liposome diameter (DLS), Pre ([5]; 2T-T 20 mol %): 121 ± 16
- PDI, Post ([5]; 2T-T 30 mol %): 0.3 ± 0
- liposome diameter (DLS), Post ([5]; 2T-T 30 mol %): 118 ± 25
- PDI, Pre ([5]; 2T-T 30 mol %): 0.3 ± 0
- liposome diameter (DLS), Pre ([5]; 2T-T 30 mol %): 98 ± 28
- PDI, Post ([5]; 2T-T 40 mol %): 0.3 ± 0
- liposome diameter (DLS), Post ([5]; 2T-T 40 mol %): 123 ± 10
- PDI, Pre ([5]; 2T-T 40 mol %): 0.3 ± 0
- liposome diameter (DLS), Pre ([5]; 2T-T 40 mol %): 114 ± 24
- PDI, Post ([5]; 2T-T 50* mol %): 0.3
- liposome diameter (DLS), Post ([5]; 2T-T 50* mol %): 122.4
- PDI, Pre ([5]; 2T-T 50* mol %): 0.3
- liposome diameter (DLS), Pre ([5]; 2T-T 50* mol %): 122.4
- PDI, Post ([5]; 2T-T 60* mol %): 0.3
- liposome diameter (DLS), Post ([5]; 2T-T 60* mol %): 88.76
- PDI, Pre ([5]; 2T-T 60* mol %): 0.5
- liposome diameter (DLS), Pre ([5]; 2T-T 60* mol %): 182.9
- PDI, Post ([5]; 2T-T 70* mol %): 0.3
- liposome diameter (DLS), Post ([5]; 2T-T 70* mol %): 75.43
- PDI, Pre ([5]; 2T-T 70* mol %): 0.4
- liposome diameter (DLS), Pre ([5]; 2T-T 70* mol %): 172.1
- Actual Drug Incorporation - Post ([6]; predicted 10 mol % (28.2 uM)): 22.1 ± 7.9 µM
- Actual Drug Incorporation - Pre ([6]; predicted 10 mol % (28.2 uM)): 25.3 ± 6.6 µM
- Actual Drug Incorporation - Post ([6]; predicted 20 mol % (53.4 uM)): 42.8 ± 4.8 µM
- Actual Drug Incorporation - Pre ([6]; predicted 20 mol % (53.4 uM)): 46.8 ± 4.8 µM
- Actual Drug Incorporation - Post ([6]; predicted 30 mol % (76.0 uM)): 66.2 ± 4.9 µM
- Actual Drug Incorporation - Pre ([6]; predicted 30 mol % (76.0 uM)): 71.5 ± 5.1 µM
- Actual Drug Incorporation - Post ([6]; predicted 40 mol % (96.5 uM)): 77.9 ± 12.3 µM
- Actual Drug Incorporation - Pre ([6]; predicted 40 mol % (96.5 uM)): 82.6 ± 13.1 µM
- Actual Drug Incorporation - Post ([6]; predicted 50* mol % (115.1 uM)): 116.2 µM
- Actual Drug Incorporation - Pre ([6]; predicted 50* mol % (115.1 uM)): 113.4 µM
- Actual Drug Incorporation - Post ([6]; predicted 60* mol % (132.0 uM)): 126.2 µM
- Actual Drug Incorporation - Pre ([6]; predicted 60* mol % (132.0 uM)): 125.4 µM
- Actual Drug Incorporation - Post ([6]; predicted 70* mol % (147.6 uM)): 133.7 µM
- Actual Drug Incorporation - Pre ([6]; predicted 70* mol % (147.6 uM)): 133.0 µM

Compound: O=C1OCC2=C1C(c1cc(Br)cc(Br)c1)c1ccc3ccc(O)cc3c1N2 (centres unmarked) [N, 7-(3,5-Dibromophenyl)-2-hydroxy-7,11-dihydrobenzo[h]-furo[3,4-b]quinolin-8(10H)-one]
- IC50 (MCF-7 cells; Homo sapiens): 3 nM
- maximum measured loading [4]: ~1.1 mol %
- IC50 (MCF10A cells; Homo sapiens, MCF-10A): 5 nM
- IC50 (HeLa cells [3]; Homo sapiens): 5 ± 1 nM

Compound: CC[C@@]1(O)C(=O)OCc2c1cc1n(c2=O)Cc2cc3c(CN(C)C)c(O)ccc3nc2-1 [topotecan]
- IC50 (HeLa cells [1]; 72 hours): 51 ± 1 nM
